Measured values published in patent publication EP0908457B1, “3-(1,2-benzisothiazol- and isoxazol-5-Y1)-2,4(1H,3H)-pyrimidinedione or thione and 3-(1,2-benzisothiazol- and isoxazol-5-y1)-4(3H)-pyrimidinone or thione herbicidal agents” (BASF AKTIENGESELLSCHAFT, priority 1997, dated 1999).

Columns and labels:
Sagittaria pygmaea, L. [1] = test: Postemergence weed control under flooded paddy conditions, SAGPY (Arrowhead (Pygmaea)); assay type: in vivo; conditions: rated three to four weeks after treatment
Sagittaria pygmaea, L. [2] = test: Preemergence weed control under flooded paddy conditions, SAGPY (Arrowhead (Pygmaea)); assay type: in vivo; conditions: preemergence, flooded paddy, rated three to four weeks after treatment; for herbicidal effect rating, SAGPY: meaning of each grade not given here
[3] = system: Monochoria vaginalis, Presl.; test: Postemergence weed control under flooded paddy conditions, MOOVA (Monochoria); assay type: in vivo; conditions: rated three to four weeks after treatment
[4] = system: Cyperus serotinus, Rottb.; test: Preemergence weed control under flooded paddy conditions, CYPSE (Flatsedge); assay type: in vivo; conditions: preemergence, rated three to four weeks after treatment; for herbicidal effect rating, CYPSE: meaning of each grade not given here
[5] = system: Echinochloa oryzoides (Ard.) Fritsch.; test: Postemergence weed control under flooded paddy conditions, ECHORC (Watergrass (Calif.)); assay type: in vivo; conditions: rated three to four weeks after treatment
[6] = system: Oryza sativa, (L.) Tebonnet; test: Rice tolerance to post-transplant applications under flooded paddy conditions (Example 187), ORYSAT (Rice, Tebonnet); conditions: rated three to four weeks after treatment
[7] = system: Echinochloa oryzoides (Ard.) Fritsch.; test: Preemergence weed control under flooded paddy conditions, ECHORC (Watergrass (Calif.)); assay type: in vivo; conditions: preemergence, flooded paddy, rated three to four weeks after treatment; for herbicidal effect rating, ECHORC: meaning of each grade not given here
[8] = system: Cyperus serotinus, Rottb.; test: Postemergence weed control under flooded paddy conditions, CYPSE (Flatsedge); assay type: in vivo; conditions: rated three to four weeks after treatment
[9] = system: Monochoria vaginalis, Presl.; test: Preemergence weed control under flooded paddy conditions, MOOVA (Monochoria); assay type: in vivo; conditions: preemergence, flooded paddy, rated three to four weeks after treatment; for herbicidal effect rating, MOOVA: meaning of each grade not given here
Cyperus iria [10] = test: Preemergence weed control under flooded paddy conditions, CYPIR (Rice Flatsedge); assay type: in vivo; conditions: preemergence, flooded paddy, rated three to four weeks after treatment; for herbicidal effect rating, CYPIR: meaning of each grade not given here
Cyperus iria [11] = test: Postemergence weed control under flooded paddy conditions, CYPIR (Rice Flatsedge); assay type: in vivo; conditions: rated three to four weeks after treatment
[12] = system: Oryza sativa, (L.) Tebonnet; test: Rice tolerance to post-transplant applications under flooded paddy conditions (Example 188), ORYSAT (Rice, Tebonnet); conditions: rated three to four weeks after treatment

## COC(=O)C(C)Oc1cc(C)c(C)cc1-c1nsc2ccc(-n3c(=O)cc(C(F)(F)F)n(C)c3=O)cc12 (stereo not drawn) [Example 13, Methyl 2-{{6-{5-[3,6-dihydro-3-methyl-4-(trifluoromethyl)-2,6-dioxo-1(2H)-pyrimidinyl]-1,2-benzisothiazol-3-yl}-3,4-xylyl}oxy}propionate]
Sagittaria pygmaea, L. [1]; Rate 0.0313 kg/ha
  herbicidal effect rating, SAGPY: 0.0
Sagittaria pygmaea, L. [1]; Rate 0.0625 kg/ha
  herbicidal effect rating, SAGPY: 0.0
Sagittaria pygmaea, L. [1]; Rate 0.1250 kg/ha
  herbicidal effect rating, SAGPY: 2.0
Sagittaria pygmaea, L. [1]; Rate 0.2500 kg/ha
  herbicidal effect rating, SAGPY: 2.0
Sagittaria pygmaea, L. [1]; Rate 0.5000 kg/ha
  herbicidal effect rating, SAGPY: 9.0
Sagittaria pygmaea, L. [2]; 0.0313 kg/ha
  herbicidal effect rating, SAGPY: 0.0
Sagittaria pygmaea, L. [2]; 0.0625 kg/ha
  herbicidal effect rating, SAGPY: 2.0
Sagittaria pygmaea, L. [2]; 0.1250 kg/ha
  herbicidal effect rating, SAGPY: 6.0
Sagittaria pygmaea, L. [2]; 0.2500 kg/ha
  herbicidal effect rating, SAGPY: 8.0
Sagittaria pygmaea, L. [2]; 0.5000 kg/ha
  herbicidal effect rating, SAGPY: 9.0
[3]; Rate 0.0313 kg/ha
  herbicidal effect rating, MOOVA: 9.0
[3]; Rate 0.0625 kg/ha
  herbicidal effect rating, MOOVA: 9.0
[3]; Rate 0.1250 kg/ha
  herbicidal effect rating, MOOVA: 9.0
[3]; Rate 0.2500 kg/ha
  herbicidal effect rating, MOOVA: 9.0
[3]; Rate 0.5000 kg/ha
  herbicidal effect rating, MOOVA: 9.0
[4]; 0.0313 kg/ha
  herbicidal effect rating, CYPSE: 0.0
[4]; 0.0625 kg/ha
  herbicidal effect rating, CYPSE: 2.0
[4]; 0.1250 kg/ha
  herbicidal effect rating, CYPSE: 7.0
[4]; 0.2500 kg/ha
  herbicidal effect rating, CYPSE: 7.0
[4]; 0.5000 kg/ha
  herbicidal effect rating, CYPSE: 7.0
[5]; Rate 0.0313 kg/ha
  herbicidal effect rating, ECHORC: 0.0
[5]; Rate 0.0625 kg/ha
  herbicidal effect rating, ECHORC: 2.0
[5]; Rate 0.1250 kg/ha
  herbicidal effect rating, ECHORC: 6.0
[5]; Rate 0.2500 kg/ha
  herbicidal effect rating, ECHORC: 8.0
[5]; Rate 0.5000 kg/ha
  herbicidal effect rating, ECHORC: 9.0
[6]; 0.0313 kg/ha
  herbicidal effect rating, ORYSAT (rice tolerance): 4.0
[6]; 0.0625 kg/ha
  herbicidal effect rating, ORYSAT (rice tolerance): 6.0
[6]; 0.1250 kg/ha
  herbicidal effect rating, ORYSAT (rice tolerance): 7.0
[6]; 0.2500 kg/ha
  herbicidal effect rating, ORYSAT (rice tolerance): 7.0
[6]; 0.5000 kg/ha
  herbicidal effect rating, ORYSAT (rice tolerance): 9.0
[7]; 0.0313 kg/ha
  herbicidal effect rating, ECHORC: 9.0
[7]; 0.0625 kg/ha
  herbicidal effect rating, ECHORC: 9.0
[7]; 0.1250 kg/ha
  herbicidal effect rating, ECHORC: 9.0
[7]; 0.2500 kg/ha
  herbicidal effect rating, ECHORC: 9.0
[7]; 0.5000 kg/ha
  herbicidal effect rating, ECHORC: 9.0
[8]; Rate 0.0313 kg/ha
  herbicidal effect rating, CYPSE: 0.0
[8]; Rate 0.0625 kg/ha
  herbicidal effect rating, CYPSE: 0.0
[8]; Rate 0.1250 kg/ha
  herbicidal effect rating, CYPSE: 2.0
[8]; Rate 0.2500 kg/ha
  herbicidal effect rating, CYPSE: 4.0
[8]; Rate 0.5000 kg/ha
  herbicidal effect rating, CYPSE: 2.0
[9]; 0.0313 kg/ha
  herbicidal effect rating, MOOVA: 9.0
[9]; 0.0625 kg/ha
  herbicidal effect rating, MOOVA: 9.0
[9]; 0.1250 kg/ha
  herbicidal effect rating, MOOVA: 9.0
[9]; 0.2500 kg/ha
  herbicidal effect rating, MOOVA: 9.0
[9]; 0.5000 kg/ha
  herbicidal effect rating, MOOVA: 9.0
Cyperus iria [10]; 0.0313 kg/ha
  herbicidal effect rating, CYPIR: 9.0
Cyperus iria [10]; 0.0625 kg/ha
  herbicidal effect rating, CYPIR: 9.0
Cyperus iria [10]; 0.1250 kg/ha
  herbicidal effect rating, CYPIR: 9.0
Cyperus iria [10]; 0.2500 kg/ha
  herbicidal effect rating, CYPIR: 9.0
Cyperus iria [10]; 0.5000 kg/ha
  herbicidal effect rating, CYPIR: 9.0
Cyperus iria [11]; Rate 0.0313 kg/ha
  herbicidal effect rating, CYPIR: 9.0
Cyperus iria [11]; Rate 0.0625 kg/ha
  herbicidal effect rating, CYPIR: 9.0
Cyperus iria [11]; Rate 0.1250 kg/ha
  herbicidal effect rating, CYPIR: 9.0
Cyperus iria [11]; Rate 0.2500 kg/ha
  herbicidal effect rating, CYPIR: 9.0
Cyperus iria [11]; Rate 0.5000 kg/ha
  herbicidal effect rating, CYPIR: 9.0
[12]; Rate 0.0313 kg/ha
  herbicidal effect rating, ORYSAT (rice tolerance): 2.0
[12]; Rate 0.0625 kg/ha
  herbicidal effect rating, ORYSAT (rice tolerance): 2.0
[12]; Rate 0.1250 kg/ha
  herbicidal effect rating, ORYSAT (rice tolerance): 4.0
[12]; Rate 0.2500 kg/ha
  herbicidal effect rating, ORYSAT (rice tolerance): 4.0
[12]; Rate 0.5000 kg/ha
  herbicidal effect rating, ORYSAT (rice tolerance): 7.0

## COC(=O)COc1ccc(C)cc1-c1noc2ccc(-n3c(=O)cc(C(F)(F)F)n(C)c3=O)c(Cl)c12 [Example 261, Acetic acid, {{2-{4-chloro-5-[3,6-dihydro-3-methyl-2,6-dioxo-4-(trifluoromethyl)-1(2H)-pyrimidinyl]-1,2-benzisoxazol-3-yl}-p-tolyl}oxy}-, methyl ester]
Sagittaria pygmaea, L. [1]; Rate 0.0320 kg/ha
  herbicidal effect rating, SAGPY: 0.0
Sagittaria pygmaea, L. [1]; Rate 0.0620 kg/ha
  herbicidal effect rating, SAGPY: 0.0
Sagittaria pygmaea, L. [1]; Rate 0.1250 kg/ha
  herbicidal effect rating, SAGPY: 0.0
Sagittaria pygmaea, L. [1]; Rate 0.2500 kg/ha
  herbicidal effect rating, SAGPY: 0.0
Sagittaria pygmaea, L. [2]; Rate 0.0320 kg/ha
  SAGPY herbicidal effect rating: 0.0
Sagittaria pygmaea, L. [2]; Rate 0.0620 kg/ha
  SAGPY herbicidal effect rating: 0.0
Sagittaria pygmaea, L. [2]; Rate 0.1250 kg/ha
  SAGPY herbicidal effect rating: 0.0
Sagittaria pygmaea, L. [2]; Rate 0.2500 kg/ha
  SAGPY herbicidal effect rating: 0.0
[3]; Rate 0.0320 kg/ha
  herbicidal effect rating, MOOVA: 9.0
[3]; Rate 0.0620 kg/ha
  herbicidal effect rating, MOOVA: 9.0
[3]; Rate 0.1250 kg/ha
  herbicidal effect rating, MOOVA: 9.0
[3]; Rate 0.2500 kg/ha
  herbicidal effect rating, MOOVA: 9.0
[4]; Rate 0.0320 kg/ha
  CYPSE herbicidal effect rating: 4.5
[4]; Rate 0.0620 kg/ha
  CYPSE herbicidal effect rating: 4.5
[4]; Rate 0.1250 kg/ha
  CYPSE herbicidal effect rating: 4.5
[4]; Rate 0.2500 kg/ha
  CYPSE herbicidal effect rating: 0.0
[5]; Rate 0.0320 kg/ha
  herbicidal effect rating, ECHORC: 0.0
[5]; Rate 0.0620 kg/ha
  herbicidal effect rating, ECHORC: 0.0
[5]; Rate 0.1250 kg/ha
  herbicidal effect rating, ECHORC: 0.0
[5]; Rate 0.2500 kg/ha
  herbicidal effect rating, ECHORC: 0.0
[6]; Rate 0.0320 kg/ha
  ORYSAT herbicidal effect rating: 0.0
[6]; Rate 0.0620 kg/ha
  ORYSAT herbicidal effect rating: 0.0
[6]; Rate 0.1250 kg/ha
  ORYSAT herbicidal effect rating: 0.0
[6]; Rate 0.2500 kg/ha
  ORYSAT herbicidal effect rating: 0.0
[7]; Rate 0.0320 kg/ha
  ECHORC herbicidal effect rating: 2.5
[7]; Rate 0.0620 kg/ha
  ECHORC herbicidal effect rating: 2.0
[7]; Rate 0.1250 kg/ha
  ECHORC herbicidal effect rating: 2.0
[7]; Rate 0.2500 kg/ha
  ECHORC herbicidal effect rating: 0.0
[8]; Rate 0.0320 kg/ha
  herbicidal effect rating, CYPSE: 0.0
[8]; Rate 0.0620 kg/ha
  herbicidal effect rating, CYPSE: 0.0
[8]; Rate 0.1250 kg/ha
  herbicidal effect rating, CYPSE: 0.0
[8]; Rate 0.2500 kg/ha
  herbicidal effect rating, CYPSE: 0.0
[9]; Rate 0.0320 kg/ha
  MOOVA herbicidal effect rating: 4.5
[9]; Rate 0.0620 kg/ha
  MOOVA herbicidal effect rating: 4.5
[9]; Rate 0.1250 kg/ha
  MOOVA herbicidal effect rating: 6.0
[9]; Rate 0.2500 kg/ha
  MOOVA herbicidal effect rating: 3.0
Cyperus iria [10]; Rate 0.0320 kg/ha
  CYPIR herbicidal effect rating: 4.0
Cyperus iria [10]; Rate 0.0620 kg/ha
  CYPIR herbicidal effect rating: 4.5
Cyperus iria [10]; Rate 0.1250 kg/ha
  CYPIR herbicidal effect rating: 5.5
Cyperus iria [10]; Rate 0.2500 kg/ha
  CYPIR herbicidal effect rating: 2.0
Cyperus iria [11]; Rate 0.0320 kg/ha
  herbicidal effect rating, CYPIR: 5.0
Cyperus iria [11]; Rate 0.0620 kg/ha
  herbicidal effect rating, CYPIR: 6.0
Cyperus iria [11]; Rate 0.1250 kg/ha
  herbicidal effect rating, CYPIR: 6.0
Cyperus iria [11]; Rate 0.2500 kg/ha
  herbicidal effect rating, CYPIR: 6.0
[12]; Rate 0.0320 kg/ha
  herbicidal effect rating, ORYSAT (rice tolerance): 0.0
[12]; Rate 0.0620 kg/ha
  herbicidal effect rating, ORYSAT (rice tolerance): 0.0
[12]; Rate 0.1250 kg/ha
  herbicidal effect rating, ORYSAT (rice tolerance): 0.0
[12]; Rate 0.2500 kg/ha
  herbicidal effect rating, ORYSAT (rice tolerance): 0.0
